Laboratory results published in ChEMBL document CHEMBL3351957, “Synthesis and pharmacological evaluation of optically pure, novel carbonyl guanidine derivatives as dual 5-HT2B and 5-HT7 receptor antagonists” (Bioorg Med Chem, 2014).
Activity calls are given as the source filed them. No cut-off for these calls is given here.

Columns and labels:
[1] = target: T1, 5-hydroxytryptamine receptor 2B (Homo sapiens, UniProt P41595); assay: Displacement of [3H]mesulergine from human 5-HT2B receptor expressed in HEK293 cells; format: cell-based
[2] = target: 5-hydroxytryptamine receptor 7 (Homo sapiens, UniProt P34969); assay: Displacement of [3H]5-HT from human 5-HT7 receptor expressed in CHO cells; format: cell-based
Mus musculus = assay: Reversal of 5-CT-induced hypothermic effect in po dosed mouse assessed as minimum effective dose; format: functional; settings: for minimal effective dose: read-out: MED
Cavia porcellus [3] = assay: Suppression of 5-HT-induced dural protein extravasation in Hartley guinea pig at 10 mg/kg, po; format: functional, organism-based; set-up: dose 10 mg/kg
[4] = target: T1, 5-hydroxytryptamine receptor 2B; assay: Antagonist activity at human 5-HT2B receptor expressed in HEK293 cells assessed as [3H]PI metabolism; format: cell-based
Cavia porcellus [5] = assay: Suppression of 5-HT-induced dural protein extravasation in po dosed Hartley guinea pig; format: functional, organism-based
[6] = target: T2, Muscarinic acetylcholine receptor M5 (Homo sapiens, UniProt P08912); assay: Binding affinity to muscarinic M5 receptor (unknown origin)
T2 sequence (P08912 whole entry): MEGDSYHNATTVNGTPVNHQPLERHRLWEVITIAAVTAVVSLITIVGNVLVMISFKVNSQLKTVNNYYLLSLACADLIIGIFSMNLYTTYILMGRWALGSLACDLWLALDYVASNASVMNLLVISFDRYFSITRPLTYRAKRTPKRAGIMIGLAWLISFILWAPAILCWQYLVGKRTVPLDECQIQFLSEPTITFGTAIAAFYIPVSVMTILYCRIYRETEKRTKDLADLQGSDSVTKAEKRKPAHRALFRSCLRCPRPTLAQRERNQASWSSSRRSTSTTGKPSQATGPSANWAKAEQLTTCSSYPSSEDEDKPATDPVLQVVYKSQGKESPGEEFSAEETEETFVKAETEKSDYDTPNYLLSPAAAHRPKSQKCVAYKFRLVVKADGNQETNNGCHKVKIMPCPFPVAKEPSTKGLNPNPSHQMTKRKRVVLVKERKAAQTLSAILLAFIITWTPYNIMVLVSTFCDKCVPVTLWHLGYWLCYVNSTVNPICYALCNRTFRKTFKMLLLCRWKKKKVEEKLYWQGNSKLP

[7] = target: 5-hydroxytryptamine receptor 2A (Homo sapiens, UniProt P28223); assay: Binding affinity to serotonin 5-HT2A receptor (unknown origin)
D(2) dopamine receptor = D(2) dopamine receptor (Homo sapiens, UniProt P14416); assay: Binding affinity to dopamine D2 receptor (unknown origin)
[8] = target: T3, Adrenergic receptor alpha-1 (Homo sapiens, UniProt P35348+P25100+P35368); assay: Binding affinity to alpha1-adrenergic receptor (unknown origin)
T3 sequence (P35348 whole entry): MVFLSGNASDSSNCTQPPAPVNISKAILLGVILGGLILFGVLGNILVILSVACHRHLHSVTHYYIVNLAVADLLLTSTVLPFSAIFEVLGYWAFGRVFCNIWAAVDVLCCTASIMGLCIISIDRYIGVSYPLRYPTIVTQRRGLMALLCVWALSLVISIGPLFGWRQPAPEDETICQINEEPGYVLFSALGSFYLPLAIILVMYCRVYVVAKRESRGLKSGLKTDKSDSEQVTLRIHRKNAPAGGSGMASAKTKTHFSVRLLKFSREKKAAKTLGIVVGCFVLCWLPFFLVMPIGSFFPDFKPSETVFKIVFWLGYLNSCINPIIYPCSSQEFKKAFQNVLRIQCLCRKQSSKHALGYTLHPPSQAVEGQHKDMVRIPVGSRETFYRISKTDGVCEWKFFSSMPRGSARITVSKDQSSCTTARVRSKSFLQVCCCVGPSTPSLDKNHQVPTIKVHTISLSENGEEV
T3 sequence (P25100 whole entry): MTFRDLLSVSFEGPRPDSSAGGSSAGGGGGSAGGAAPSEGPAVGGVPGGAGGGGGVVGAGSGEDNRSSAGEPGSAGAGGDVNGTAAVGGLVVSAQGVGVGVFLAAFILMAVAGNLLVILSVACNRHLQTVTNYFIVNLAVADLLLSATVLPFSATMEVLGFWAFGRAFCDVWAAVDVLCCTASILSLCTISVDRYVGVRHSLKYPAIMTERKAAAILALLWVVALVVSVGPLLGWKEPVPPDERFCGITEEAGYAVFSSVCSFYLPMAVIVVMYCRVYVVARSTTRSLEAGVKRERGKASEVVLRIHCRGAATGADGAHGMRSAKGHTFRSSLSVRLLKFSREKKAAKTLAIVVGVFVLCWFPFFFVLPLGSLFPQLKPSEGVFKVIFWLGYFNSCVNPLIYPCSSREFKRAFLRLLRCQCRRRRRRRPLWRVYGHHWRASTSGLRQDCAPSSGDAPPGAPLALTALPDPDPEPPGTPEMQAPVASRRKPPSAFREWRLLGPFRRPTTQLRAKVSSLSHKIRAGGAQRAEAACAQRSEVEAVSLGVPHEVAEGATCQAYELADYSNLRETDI
T3 sequence (P35368 whole entry): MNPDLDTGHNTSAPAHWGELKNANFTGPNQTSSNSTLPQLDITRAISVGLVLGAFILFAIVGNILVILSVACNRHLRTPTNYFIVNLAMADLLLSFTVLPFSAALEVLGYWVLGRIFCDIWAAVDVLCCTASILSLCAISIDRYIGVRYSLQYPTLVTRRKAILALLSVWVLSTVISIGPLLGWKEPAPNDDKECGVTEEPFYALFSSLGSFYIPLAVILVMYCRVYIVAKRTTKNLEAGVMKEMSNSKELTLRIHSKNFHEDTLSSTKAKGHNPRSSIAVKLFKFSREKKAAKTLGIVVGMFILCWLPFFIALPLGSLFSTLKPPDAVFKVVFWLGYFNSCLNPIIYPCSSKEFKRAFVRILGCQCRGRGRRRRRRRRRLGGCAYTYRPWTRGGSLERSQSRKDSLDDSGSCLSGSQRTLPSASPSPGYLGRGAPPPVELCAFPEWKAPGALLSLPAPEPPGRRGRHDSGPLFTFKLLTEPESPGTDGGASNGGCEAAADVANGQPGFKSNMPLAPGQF

[9] = target: T4, 5-hydroxytryptamine receptor 2C (Homo sapiens, UniProt P28335); assay: Binding affinity to serotonin 5-HT2C receptor (unknown origin)
T4 sequence (P28335 whole entry): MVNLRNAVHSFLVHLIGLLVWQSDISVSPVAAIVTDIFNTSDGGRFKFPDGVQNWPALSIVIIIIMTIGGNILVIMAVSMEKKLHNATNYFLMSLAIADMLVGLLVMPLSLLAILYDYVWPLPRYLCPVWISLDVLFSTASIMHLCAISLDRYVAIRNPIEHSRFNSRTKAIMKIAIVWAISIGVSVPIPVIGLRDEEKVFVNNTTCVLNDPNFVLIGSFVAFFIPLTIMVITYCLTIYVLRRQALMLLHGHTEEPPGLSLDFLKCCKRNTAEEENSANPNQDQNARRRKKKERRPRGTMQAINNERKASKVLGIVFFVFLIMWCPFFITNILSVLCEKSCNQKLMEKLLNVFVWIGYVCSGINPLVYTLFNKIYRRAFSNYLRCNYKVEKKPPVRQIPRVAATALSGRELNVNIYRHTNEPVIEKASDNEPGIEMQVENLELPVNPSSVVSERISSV

Chain of 5-hydroxytryptamine receptor 7 (P34969 whole entry): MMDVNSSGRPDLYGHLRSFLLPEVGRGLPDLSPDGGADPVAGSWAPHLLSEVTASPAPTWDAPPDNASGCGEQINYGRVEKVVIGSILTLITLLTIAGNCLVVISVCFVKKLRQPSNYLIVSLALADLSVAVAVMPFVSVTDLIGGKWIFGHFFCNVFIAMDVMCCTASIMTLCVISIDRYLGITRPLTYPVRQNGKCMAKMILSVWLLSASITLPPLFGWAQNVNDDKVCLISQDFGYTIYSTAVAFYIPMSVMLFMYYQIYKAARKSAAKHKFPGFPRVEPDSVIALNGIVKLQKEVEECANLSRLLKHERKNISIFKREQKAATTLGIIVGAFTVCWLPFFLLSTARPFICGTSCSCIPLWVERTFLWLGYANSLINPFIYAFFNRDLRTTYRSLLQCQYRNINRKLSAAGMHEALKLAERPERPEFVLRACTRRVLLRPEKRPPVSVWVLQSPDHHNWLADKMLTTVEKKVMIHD
T1 sequence (P41595 whole entry): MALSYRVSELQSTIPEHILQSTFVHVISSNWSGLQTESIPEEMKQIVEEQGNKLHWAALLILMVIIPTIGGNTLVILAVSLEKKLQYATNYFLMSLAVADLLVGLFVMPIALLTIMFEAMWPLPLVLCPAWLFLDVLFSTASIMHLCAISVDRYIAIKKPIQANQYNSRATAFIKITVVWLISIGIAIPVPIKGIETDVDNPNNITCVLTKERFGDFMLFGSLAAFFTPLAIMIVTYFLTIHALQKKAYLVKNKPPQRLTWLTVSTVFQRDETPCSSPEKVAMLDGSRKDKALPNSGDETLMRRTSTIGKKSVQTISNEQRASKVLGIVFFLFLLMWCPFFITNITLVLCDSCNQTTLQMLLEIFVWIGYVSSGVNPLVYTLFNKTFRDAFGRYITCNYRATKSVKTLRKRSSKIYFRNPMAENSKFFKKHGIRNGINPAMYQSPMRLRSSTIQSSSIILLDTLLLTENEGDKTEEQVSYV
Chain of 5-hydroxytryptamine receptor 2A (P28223 whole entry): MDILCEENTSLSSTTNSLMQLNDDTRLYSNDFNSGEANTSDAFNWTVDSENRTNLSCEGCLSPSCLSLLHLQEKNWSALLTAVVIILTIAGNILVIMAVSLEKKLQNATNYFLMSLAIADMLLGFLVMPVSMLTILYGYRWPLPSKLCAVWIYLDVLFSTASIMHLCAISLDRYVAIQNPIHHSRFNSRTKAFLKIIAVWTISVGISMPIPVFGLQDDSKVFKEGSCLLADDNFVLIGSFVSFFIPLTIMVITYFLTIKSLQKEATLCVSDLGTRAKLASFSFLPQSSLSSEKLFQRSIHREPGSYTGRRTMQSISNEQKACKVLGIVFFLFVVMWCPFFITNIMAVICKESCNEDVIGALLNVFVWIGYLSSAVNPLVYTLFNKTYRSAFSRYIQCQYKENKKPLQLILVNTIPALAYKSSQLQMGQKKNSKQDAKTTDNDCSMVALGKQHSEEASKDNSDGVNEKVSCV
Chain of D(2) dopamine receptor (P14416 whole entry): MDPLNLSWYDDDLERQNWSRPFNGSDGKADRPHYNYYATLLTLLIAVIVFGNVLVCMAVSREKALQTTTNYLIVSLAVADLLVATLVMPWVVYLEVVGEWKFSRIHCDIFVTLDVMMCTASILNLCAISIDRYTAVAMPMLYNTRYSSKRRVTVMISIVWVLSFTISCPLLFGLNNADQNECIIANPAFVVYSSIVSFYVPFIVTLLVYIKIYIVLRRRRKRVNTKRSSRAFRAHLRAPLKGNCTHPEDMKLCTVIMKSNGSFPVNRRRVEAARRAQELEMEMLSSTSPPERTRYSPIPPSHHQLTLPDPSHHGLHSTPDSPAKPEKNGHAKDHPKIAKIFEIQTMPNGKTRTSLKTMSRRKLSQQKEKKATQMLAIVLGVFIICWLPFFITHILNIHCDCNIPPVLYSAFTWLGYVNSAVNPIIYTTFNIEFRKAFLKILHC

| Structure (SMILES) | Ki [1] | Ki [2] | minimal effective dose (Mus musculus) | also measured |
| --- | --- | --- | --- | --- |
| COCC1(OC)c2ccccc2-c2ccc(C(=O)N=C(N)N)cc21.Cl (stereo not drawn) | 2 nM | 0.76 nM | > 30 mg/kg | – |
| COC1(C)c2ccccc2-c2ccc(C(=O)N=C(N)N)cc21.Cl (stereo not drawn) | 3.3 nM | 1.4 nM | 30 mg/kg | – |
| NC(N)=NC(=O)c1ccc2c(c1)C1(CC1)c1ccccc1-2 | 0.51 nM | 4.9 nM | – | MED (Mus musculus): inactive |
| NC(N)=NC(=O)c1ccc2c(c1)C1(CCOCC1)c1ccccc1-2 | 9.1 nM | 1.3 nM | – | – |
| CC1(O)c2ccccc2-c2ccc(C(=O)N=C(N)N)cc21.Cl (stereo not drawn) | – | – | 30 mg/kg | – |
| CCC1(O)c2ccccc2-c2ccc(C(=O)N=C(N)N)cc21 (stereo not drawn) | 41 nM | 1.2 nM | – | – |
| CCCCC1(O)c2ccccc2-c2ccc(C(=O)N=C(N)N)cc21 (stereo not drawn) | 31 nM | > 100 nM | – | – |
| Cl.NC(N)=NC(=O)c1ccc2c(c1)C1(CCCC1)c1ccccc1-2 | 1.7 nM | 1.8 nM | ≤ 100 mg/kg | – |
| NC(N)=NC(=O)c1ccc2c(c1)[C@@]1(CCCO1)c1ccccc1-2 | 5.1 nM | – | – | inhibition (Cavia porcellus [3]): Active; IC50 [4]: 73 nM; inhibition (Cavia porcellus [5]): Dose-dependent effect |
| NC(N)=NC(=O)c1ccc2c(c1)[C@]1(CCCO1)c1ccccc1-2 | 2.7 nM | – | – | inhibition (Cavia porcellus [3]): Active; IC50 [4]: 35 nM; inhibition (Cavia porcellus [5]): Dose-dependent effect |
| Cl.NC(N)=NC(=O)c1ccc2c(c1)C1(CCCO1)c1ccccc1-2 (stereo not drawn) | 5.1 nM | – | 3 mg/kg | Ki [6]: > 1000 nM; IC50 [4]: 55 nM; Ki [7]: > 1000 nM; Ki (D(2) dopamine receptor): > 1000 nM; Ki [8]: > 1000 nM; Ki [9]: 152 nM |
| CCC1(OC)c2ccccc2-c2ccc(C(=O)N=C(N)N)cc21.Cl (stereo not drawn) | 4.8 nM | 0.6 nM | 10 mg/kg | – |
